Test systems include HOP-62; COLO 205; SW-620; OVCAR-3; SF-539; T47D; A498; Hs-578T; OVCAR-5; HCC 2998; M14; HT-29; NCI-H23; KM12; DU-145; OVCAR-4; SK-MEL-2; MCF7; MDA-MB-435; NCI/ADR-RES.
What all share (test): NCI-60 cell line screen, 48 h

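48-hour exposure; five concentrations; linearly interpolated endpoints. GI50: concentration for 50% inhibition of growth.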 The source made the active and inactive calls. Cut-off read from the data, not from the text of the source: active = GI50 up to about 1.1 µM and inactive = higher.

`CN(C(=O)c1ccccc1)C1CCCC(=O)CC1` (stereo unspecified): the GI50 in the assay with HOP-62, in the assay with COLO 205, in the assay with SW-620, in the assay on OVCAR-3, with SF-539 and in the assay with T47D was > 100 µM (inactive) throughout. Besides, the GI50 in the assay with A498, in the assay with Hs-578T, with OVCAR-5, in the assay on HCC 2998, in the assay with M14 and in the assay on HT-29 was > 100 µM (inactive) throughout. For the same compound, the GI50 in the assay with NCI-H23, in the assay on KM12, in the assay on DU-145, in the assay with OVCAR-4, with SK-MEL-2 and in the assay with MCF7 was > 100 µM (inactive) in each case. The GI50 with MDA-MB-435 was > 100 µM (inactive).

As to `BrCC[N+]12CCCN1CCC2`, the GI50 was > 47.3 µM (inactive) in the assay with HOP-62; 4.14 µM (inactive) in the assay with COLO 205; 2.28 µM (inactive) in the assay with SW-620; 13.9 µM (inactive) in the assay on OVCAR-3; 15.2 µM (inactive) in the assay on SF-539; 9.93 µM (inactive) with T47D. Also, the GI50 in the assay with A498 is 45.9 µM (inactive); with Hs-578T it was 0.692 µM (active); in the assay on OVCAR-5 it was 21.5 µM (inactive); in the assay with HCC 2998, 22.3 µM (inactive); in the assay with M14, 11 µM (inactive); in the assay on HT-29 it was 10.8 µM (inactive). Moreover, the GI50 in the assay on NCI-H23 is 18.5 µM (inactive); in the assay on KM12 it was > 67.3 µM (inactive); with DU-145, 45.3 µM (inactive); with OVCAR-4 it was 4.23 µM (inactive); in the assay on SK-MEL-2, 20.5 µM (inactive).

As to `CCCCCCC1CC(=O)C1(Cl)Cl` (stereo unspecified), the GI50 in the assay on HOP-62 was 44.7 µM (inactive); in the assay with SW-620, 19.6 µM (inactive); in the assay on SF-539, 31.3 µM (inactive); with T47D it was 27.5 µM (inactive); with Hs-578T, 20 µM (inactive); in the assay with OVCAR-5 it was > 100 µM (inactive). Besides, the GI50 was 26.3 µM (inactive) in the assay with HCC 2998; 26.7 µM (inactive) with M14; 26.7 µM (inactive) in the assay with HT-29; 25.2 µM (inactive) in the assay with NCI-H23; 22.4 µM (inactive) with KM12; 26.9 µM (inactive) in the assay with DU-145. Besides, the GI50 in the assay on OVCAR-4 is 29.1 µM (inactive); in the assay with SK-MEL-2, 30.9 µM (inactive); in the assay on MCF7, 26.4 µM (inactive); in the assay with NCI/ADR-RES, 32.2 µM (inactive).

In the case of `NC(=O)c1cc(-c2ccc(-n3ccnc3)cc2)nnc1O`, the GI50 with HOP-62, with COLO 205, in the assay with SW-620, in the assay on SF-539, in the assay on A498 and in the assay on Hs-578T was > 100 µM (inactive) each time. In addition, the GI50 in the assay with OVCAR-5, with HCC 2998, in the assay with M14, in the assay with NCI-H23, in the assay on DU-145 and in the assay on OVCAR-4 was > 100 µM (inactive) each time. For the same compound, the GI50 in the assay with MCF7 is 67.6 µM (inactive); in the assay on MDA-MB-435, > 100 µM (inactive).

In the case of `Cc1cc(S(=O)(=O)Nc2nc(N)nc(N3CCOCC3)n2)c(SCC(=O)O)cc1Cl`, the GI50 in the assay on HOP-62, with COLO 205, in the assay on SW-620, in the assay with OVCAR-3, with SF-539 and in the assay with T47D was > 10 µM (inactive) each time. For the same compound, the GI50 in the assay on A498, with Hs-578T, in the assay with OVCAR-5, in the assay with HCC 2998, with M14 and in the assay with HT-29 was > 10 µM (inactive) in each case. Also, the GI50 in the assay on NCI-H23, in the assay on KM12, with DU-145, with OVCAR-4, in the assay on SK-MEL-2 and in the assay on MCF7 was > 10 µM (inactive) in each case. In addition, the GI50 in the assay on NCI/ADR-RES is > 10 µM (inactive).

In the case of `O=c1cc(N2CCOCC2)n2c(ccc3ccccc32)n1`, the GI50 in the assay on HOP-62, in the assay with COLO 205, with SW-620, in the assay with OVCAR-3, with SF-539 and in the assay on T47D was > 100 µM (inactive) throughout. Moreover, the GI50 in the assay with A498, with Hs-578T, in the assay on OVCAR-5, in the assay with HCC 2998, in the assay with M14 and in the assay with HT-29 was > 100 µM (inactive) each time. Besides, the GI50 in the assay with NCI-H23, in the assay on KM12, with SK-MEL-2, in the assay with MCF7, in the assay with MDA-MB-435 and with NCI/ADR-RES was > 100 µM (inactive) in each case.

On to `CCOC(=O)c1c(C)n(Cc2ccc(Cl)cc2Cl)c2c1cc(O)c1[nH]c3c(c12)CCCC3`, for which the GI50 in the assay on HOP-62 was 27.5 µM (inactive); in the assay on COLO 205, 37.1 µM (inactive); with SW-620, 30.7 µM (inactive); in the assay with OVCAR-3, 38 µM (inactive); in the assay on SF-539, 24.1 µM (inactive); in the assay on T47D, 14.7 µM (inactive). In addition, the GI50 with A498 is 19.5 µM (inactive); in the assay on OVCAR-5 it was 36.2 µM (inactive); with HCC 2998, 27.3 µM (inactive); in the assay on M14, 26.7 µM (inactive); in the assay on HT-29, 24 µM (inactive); with NCI-H23, 27.5 µM (inactive). Moreover, the GI50 was 22.6 µM (inactive) with KM12; 36.4 µM (inactive) with DU-145; 17.1 µM (inactive) in the assay on OVCAR-4; 24 µM (inactive) in the assay with SK-MEL-2; 14.6 µM (inactive) in the assay with MCF7; 20.3 µM (inactive) in the assay with MDA-MB-435. In addition, in the assay on NCI/ADR-RES, the GI50 was 18.8 µM (inactive).

`CC(=O)OC1CC2c3cccc4c3C(CC2N(C)C1=O)CN4C(=O)c1ccccc1` (stereo unspecified): the GI50 was 23.2 µM (inactive) in the assay on HOP-62; 23.3 µM (inactive) in the assay on COLO 205; 23.4 µM (inactive) with SW-620; 13.8 µM (inactive) in the assay on OVCAR-3; 25.8 µM (inactive) with SF-539; 18.1 µM (inactive) in the assay with T47D. Besides, the GI50 in the assay on A498 was 21.5 µM (inactive); in the assay on OVCAR-5, 32.4 µM (inactive); with HCC 2998 it was 15 µM (inactive); in the assay with M14, 22.1 µM (inactive); with HT-29, 17.9 µM (inactive); in the assay on NCI-H23, 16.6 µM (inactive). In addition, the GI50 in the assay on KM12 was 21.3 µM (inactive); in the assay on DU-145, 16.6 µM (inactive); with OVCAR-4, 22.1 µM (inactive); in the assay on SK-MEL-2, 20.5 µM (inactive); in the assay with MCF7, 23.1 µM (inactive); in the assay on MDA-MB-435, 18.4 µM (inactive). Moreover, the GI50 in the assay on NCI/ADR-RES was 20.6 µM (inactive).

As to `CC1=Nc2nc3ccccc3n2C(C)(C)C1`, the GI50 with HOP-62, in the assay on COLO 205, with SW-620, in the assay with OVCAR-3, with SF-539 and with T47D was > 100 µM (inactive) in each case. The GI50 in the assay with A498, in the assay on Hs-578T, in the assay with OVCAR-5, with M14, with HT-29 and with NCI-H23 was > 100 µM (inactive) in each case. Further, the GI50 in the assay with KM12, with OVCAR-4, in the assay with SK-MEL-2, in the assay on MCF7, in the assay with MDA-MB-435 and with NCI/ADR-RES was > 100 µM (inactive) in each case.

Turning to `O=C1C2=Cc3ccccc3OC2(O)Oc2ccccc21` (stereo unspecified), the GI50 in the assay on HOP-62 is > 100 µM (inactive); with COLO 205, > 100 µM (inactive); in the assay with SW-620, > 100 µM (inactive); in the assay with OVCAR-3, 91.2 µM (inactive); with SF-539 it was > 100 µM (inactive); with T47D, > 100 µM (inactive). Further, the GI50 in the assay on A498, in the assay with OVCAR-5, with HCC 2998, in the assay with M14, with HT-29 and in the assay with NCI-H23 was > 100 µM (inactive) each time. In addition, the GI50 in the assay on KM12, in the assay with DU-145, in the assay on OVCAR-4, in the assay with SK-MEL-2, with MCF7 and in the assay on MDA-MB-435 was > 100 µM (inactive) in each case. In addition, in the assay on NCI/ADR-RES, the GI50 is > 100 µM (inactive).

In the case of `CCOP(=O)(OCC)C1C(CO)OC(n2ccc(=O)[nH]c2=O)C1O` (stereo unspecified), the GI50 in the assay on HOP-62, in the assay with SW-620, in the assay on OVCAR-3, in the assay on SF-539, in the assay with T47D and with A498 was > 100 µM (inactive) each time. Moreover, the GI50 was > 100 µM (inactive) in the assay on Hs-578T; 78.7 µM (inactive) in the assay with HCC 2998; > 100 µM (inactive) in the assay with M14; > 100 µM (inactive) in the assay on HT-29; > 100 µM (inactive) with KM12; 74.5 µM (inactive) in the assay with OVCAR-4. For the same compound, the GI50 in the assay with SK-MEL-2 is > 100 µM (inactive).

Values taken from ChEMBL document CHEMBL1201862, “PubChem BioAssay data set” (2004).
